# Results as given in patent US20060160905A1, “Compositions and methods for inhibiting pain” (priority 2005, published 2006).
# System: acetic acid-induced visceral pain
# Assay: acetic acid-induced visceral pain mouse model (writhing/stretch count)
# Assay type: in vivo, mice (male Harlan ICR)
# Settings: for number of stretches (writhes) per 30 minutes: 0.75% acetic acid IP half an hour later, control mice typically stretch 65-70 times/30 minutes; for effect on inhibiting visceral pain (stretches vs. control mice), in words: doses from 0.37 mg/kg to 30.0 mg/kg SC
# Method: The acetic acid-induced visceral pain mouse model test is, of course, well known to those skilled in the art and is described in the seminal paper by Collier et al [Collier, H. O. J., L. C. Dinneen, C. A. Johnson and C. Schneider 1968. The abdominal constriction response and its suppression by analgesic drugs in the mouse.
# The drugs are identified below as Monoamine #1-6. Five groups of five mice (male Harlan ICR, weight 35-50 g) were used to test each of the drugs. Control animals were tested as part of each experiment as well. The mice in each group were weighed and identified with a tail marking and were given a single dose of one of the drugs at 1 ml/100 g SC. The first group served as controls and was given only saline; the other five groups were given a drug at five doses ranging from 0.37 mg/kg up to 30.0 mg/kg. After the drug was administered, the mice were allowed to acclimate for one-half hour and were then given an IP injection of 0.75% Glacial acetic acid at a volume of 1 ml/100 g. Once the acid was injected, the mice were put into individual clear containers for observation. The mice were then watched continuously for one-half hour and the number of “stretches” or writhes were counted. The animal was considered to be stretching when its front legs stepped forward and at least one hind leg was extended out behind them. At the end of the thirty-minute observational period the mice were sacrificed with CO2. The same procedure was followed for all of the different compounds examined.
structure (smiles),measurement,setting,value
"CCNCCc1ccccc1O.Cl [Monoamine #1, 2-[2-(Ethylamino)ethyl]phenol Hydrochloride]",number of stretches (writhes) per 30 minutes,10 mg/kg SC single dose,25.9±14.8 stretches/30 minutes
same,number of stretches (writhes) per 30 minutes,30 mg/kg SC single dose,13.1±11.7 stretches/30 minutes
same,"effect on inhibiting visceral pain (stretches vs. control mice), in words",Hydrochloride,statistical significance at all doses tested
same,"effect on inhibiting visceral pain (stretches vs. control mice), in words","listed as #1, Hydrochloride",effective at all of the doses tested
CCNCCCc1ccccc1O.Cl [Monoamine #2],number of stretches (writhes) per 30 minutes,30 mg/kg SC single dose,47.7±22.4 stretches/30 minutes
same,"effect on inhibiting visceral pain (stretches vs. control mice), in words",,only a minimal effect on inhibiting visceral pain
same,"effect on inhibiting visceral pain (stretches vs. control mice), in words",listed as #2,little/no effect
CCNCCCCc1ccccc1O [Monoamine #3],"effect on inhibiting visceral pain (stretches vs. control mice), in words",,significantly fewer stretches than the control mice
same,"effect on inhibiting visceral pain (stretches vs. control mice), in words",listed as #3,effective at all of the doses tested
CCN(CCCc1ccccc1O)Cc1ccccc1.CS(=O)(=O)O [Monoamine #4],"effect on inhibiting visceral pain (stretches vs. control mice), in words",,not effective against visceral pain
same,"effect on inhibiting visceral pain (stretches vs. control mice), in words",listed as #4,little/no effect
"CCNCCCCC1CCCCC1 [Monoamine #5, N-(4-cyclohexylbutyl)-N-ethylamine]","effect on inhibiting visceral pain (stretches vs. control mice), in words",,significantly fewer stretches than the control mice
same,"effect on inhibiting visceral pain (stretches vs. control mice), in words",listed as #5,effective at all of the doses tested
"CCCCCCNC1CCCCC1 [Monoamine #6, N-hexylcyclohexanamine]","effect on inhibiting visceral pain (stretches vs. control mice), in words",,not effective against visceral pain
same,"effect on inhibiting visceral pain (stretches vs. control mice), in words",listed as #6,little/no effect
